Results taken from ChEMBL document CHEMBL1201862, “PubChem BioAssay data set” (2004).
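These data come from cells grown in 96-well plates and exposed to compound for 48 hours at five concentrations. The concentration for 50% growth inhibition is given as GI50.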 The source made the active and inactive calls. No stated cut-off is given here; in the data, active = GI50 up to about 1.1 µM and inactive = higher.

How the values were obtained:
Assay in all cases: inhibition of tumour cell growth, NCI panel, 48 h
[1] = tested on: U-251
[2] = tested on: A498
[3] = tested on: MDA-MB-435
[4] = tested on: MCF7
[5] = tested on: NCI-H460
[6] = tested on: OVCAR-5
[7] = tested on: SK-OV-3
[8] = tested on: DU-145
[9] = tested on: K562
[10] = tested on: MOLT-4
[11] = tested on: HCT-116
[12] = tested on: 786-0
[13] = tested on: IGROV-1
[14] = tested on: BT-549
[15] = tested on: A549
[16] = tested on: COLO 205
[17] = tested on: ACHN
[18] = tested on: HL-60
[19] = tested on: CAKI-1
[20] = tested on: NCI-H522

Measured: GI50

COC(=O)c1nc(-c2nc(CCNC(=O)OC(C)(C)C)sc2Cl)sc1Cl
inactive: [1] > 100 µM | [2] 94.6 µM | [3] 92 µM | [4] 52 µM | [5] > 100 µM | [6] > 100 µM | [7] > 100 µM | [8] > 100 µM | [9] 36.7 µM | [10] 23.8 µM | [11] 60.7 µM | [12] > 100 µM | [13] > 100 µM | [14] 34.5 µM | [15] > 100 µM | [16] 98.4 µM | [17] 83.2 µM | [18] 71.9 µM

O=C1CC(O)c2c1csc2Br (centres undefined)
inactive: [1] 19.8 µM | [3] 18.8 µM | [4] 19.8 µM | [19] 37.8 µM | [5] 25.7 µM | [6] > 100 µM | [7] 53.8 µM | [8] 25.9 µM | [9] 25.6 µM | [10] 20.3 µM | [11] 18.5 µM | [12] 17.9 µM | [13] 13.5 µM | [14] 23.2 µM | [15] 28.4 µM | [16] 41.3 µM | [17] 21.9 µM | [20] 15.5 µM

Cc1cc(NS(=O)(=O)c2ccc(NC(=O)c3ccc4[nH]c5ccccc5c(=O)c4c3)cc2)no1
inactive: [1] 47.4 µM | [3] > 100 µM | [4] > 100 µM | [19] > 100 µM | [5] > 100 µM | [6] > 100 µM | [7] > 100 µM | [8] > 100 µM | [9] > 100 µM | [10] 49.8 µM | [11] > 100 µM | [12] > 100 µM | [13] > 100 µM | [14] > 100 µM | [15] > 100 µM | [16] > 100 µM | [17] > 100 µM | [18] > 100 µM | [20] > 100 µM

CC(=O)OCC1OC(n2c(N)c(C#N)c(-c3ccc(C)cc3)c(C#N)c2=S)C(OC(C)=O)C(OC(C)=O)C1OC(C)=O (centres undefined)
inactive: [1] 17 µM | [2] 39.9 µM | [3] 21.2 µM | [4] 20.1 µM | [19] 63.7 µM | [5] 31.4 µM | [6] 53.5 µM | [7] 24.5 µM | [8] 15.4 µM | [9] 40.5 µM | [11] 46.1 µM | [12] 15.7 µM | [13] 20.3 µM | [14] 37.3 µM | [15] 16 µM | [16] 16 µM | [17] 29.1 µM | [18] 87.5 µM

COc1ccc(C2OC(N)=C(C#N)C3=C2CCCC3C)cc1OC (centres undefined)
inactive: [1] > 100 µM | [2] > 100 µM | [3] > 100 µM | [4] > 100 µM | [19] > 100 µM | [5] > 100 µM | [6] > 100 µM | [7] > 100 µM | [8] > 100 µM | [9] > 100 µM | [10] > 100 µM | [11] > 100 µM | [12] > 100 µM | [13] > 100 µM | [14] > 100 µM | [16] > 100 µM | [17] > 100 µM | [18] > 100 µM

Cc1cc(NS(=O)(=O)c2ccc(NC(NC(=O)C(C(F)(F)F)C(F)(F)F)(C(F)(F)F)C(F)(F)F)cc2)no1
inactive: [1] > 100 µM | [3] > 100 µM | [4] > 100 µM | [19] > 100 µM | [5] > 100 µM | [6] > 100 µM | [7] 1.96 µM | [8] > 100 µM | [9] > 100 µM | [10] > 100 µM | [11] > 100 µM | [12] > 100 µM | [13] > 100 µM | [14] > 100 µM | [15] > 100 µM | [16] > 100 µM | [17] > 100 µM | [18] > 100 µM

O=C(O)c1cc2ccccc2c2c1C(=O)c1ccccc1-2
inactive: [1] > 100 µM | [3] > 100 µM | [4] 98.9 µM | [19] > 100 µM | [5] > 100 µM | [6] > 100 µM | [7] 56.6 µM | [8] > 100 µM | [9] > 100 µM | [10] > 100 µM | [11] > 100 µM | [12] > 100 µM | [13] 58.7 µM | [14] > 100 µM | [15] 75.9 µM | [16] > 100 µM | [17] 30.3 µM | [18] > 100 µM | [20] 83.9 µM

N#CC(NNC(=O)c1c(Cl)c(Cl)c(Cl)c(Cl)c1-c1nc2cc(C(=O)c3ccccc3)ccc2[nH]1)c1ccccc1 (centres undefined)
inactive: [1] 15.8 µM | [3] 2.82 µM | [4] 2.9 µM | [19] 21.4 µM | [6] 26.5 µM | [7] 13 µM | [8] 24.3 µM | [9] 3.24 µM | [10] 3.22 µM | [11] 10.6 µM | [12] 12.2 µM | [13] 12.5 µM | [14] 9.2 µM | [15] 6.76 µM | [16] 10 µM | [17] 10.6 µM | [18] 4.69 µM | [20] 3.39 µM

CC1(C)OCC2OC3([C@H]4OC(C)(C)O[C@@H]4CO)OC(C)(C)OC3C2O1 (some centres undefined)
inactive: [1] > 100 µM | [2] > 100 µM | [3] > 100 µM | [4] > 100 µM | [19] > 100 µM | [5] > 100 µM | [6] > 100 µM | [8] > 100 µM | [9] > 100 µM | [10] > 100 µM | [11] > 100 µM | [12] > 100 µM | [13] > 100 µM | [14] > 100 µM | [15] > 100 µM | [16] > 100 µM | [17] > 100 µM

COC(=O)c1cc(Br)c(C(=O)C(Cl)(Cl)Cl)[nH]1
inactive: [1] > 100 µM | [2] > 100 µM | [3] > 100 µM | [19] > 100 µM | [5] > 100 µM | [6] > 100 µM | [7] > 100 µM | [8] > 100 µM | [9] > 100 µM | [10] > 100 µM | [11] > 100 µM | [12] > 100 µM | [13] > 100 µM | [14] > 100 µM | [15] > 100 µM | [16] > 100 µM | [17] > 100 µM | [18] > 100 µM | [20] > 100 µM

Cc1ccc(S(=O)(=O)NC(=O)NCC(=O)O)cc1
inactive: [1] > 100 µM | [4] > 100 µM | [5] > 100 µM | [6] > 100 µM | [7] > 100 µM | [8] > 100 µM | [9] > 100 µM | [10] > 100 µM | [11] > 100 µM | [12] > 100 µM | [13] > 100 µM | [14] > 100 µM | [15] > 100 µM | [16] > 100 µM | [17] > 100 µM | [18] > 100 µM | [20] > 100 µM
